We go through 5 compounds from patent US7414031B2, “5-nitro-nucleoside compounds for treating viral infections” (priority 2004, dated 2008).

Where only a bound is given, the exact number is not on record here.

For series [1] the following is noted: patients treated at currently recommended doses; cited from earlier work.
Series [2] deals with HCV replicon I389luc-ubi-neo/NS3-3′/ET in ET (Huh-lucubineo-ET) cell line. Nature of the series: Replicon Assay. The note with it: Hepatitis C virus, read-out: Replicon Assay. The format is cell-based. As to the method:
A cell line, ET (Huh-lucubineo-ET) is used for screening of compounds of the present invention for HCV RNA dependent RNA polymerase. The ET cell line is stably transfected with RNA transcripts harboring a I389luc-ubi-neo/NS3-3′/ET; replicon with firefly luciferase-ubiquitin-neomycin phosphotransferase fusion protein and EMCV-IRES driven NS3-5B polyprotein containing the cell culture adaptive mutations (E1202G; T1280I; K1846T) (Krieger at al, 2001 and unpublished). The ET cells are grown in DMEM, supplemented with 10% fetal calf serum, 2 mM Glutamine, Penicillin (100 IU/mL)/Streptomycin (100 μg/mL), 1× nonessential amino acids, and 250 μg/mL G418 (“Geneticin”). They are all available through Life Technologies (Bethesda, Md.). The cells are plated at 0.5-1.0×10^4 cells/well in the 96 well plates and incubated for 24 hrs before adding nucleoside analogs. […] Luciferase activity will be measured 48-72 hours later by adding a lysis buffer and the substrate (Catalog number Glo-lysis buffer E2661 and Bright-Glo leuciferase system E2620 Promega, Madison, Wis.). […] Under the same condition, cytotoxicity of the compounds will be determined using cell proliferation reagent, WST-1 (Roche, Germany). […] IC50 and TC50 values were calculated by fitting % inhibition at each concentration to the following equation: % inhibition=100%/[(IC50/[I])^b+1] where b is Hill's coefficient.

Series [3] deals with T1, recombinant HCV-NS5b (Hepatitis C virus genotype 1b, UniProt Q9WMX2).
T1 construct: (His)6 (C); made in house; host or cells: XL-1 cells (E. coli)
Nature of the series: HCV-NS5b Enzyme Assay. In kind it is biochemical. The text has this:
The coding sequence of NS5b protein is cloned by PCR from pFKI389luc/NS3-3′/ET as described by Lohmann, V., et al. (1999) Science 285, 110-113 using the following primers: […] (SEQ. ID. NO. 1) […] (SEQ. ID. NO. 2)
The cloned fragment is missing the C terminus 21 amino acid residues. The cloned fragment is inserted into an IPTG-inducible expression plasmid that provides an epitope tag (His)6 at the carboxy terminus of the protein.
The recombinant enzyme is expressed in XL-1 cells and after induction of expression, the protein is purified using affinity chromatography on a nickel-NTA column. Storage condition is 10 mM Tris-HCl pH 7.5, 50 mM NaCl, 0.1 mM EDTA, 1 mM DTT, 20% glycerol at −20° C.
The polymerase activity is assayed by measuring incorporation of radiolabeled UTP into a RNA product using a biotinylated, heteropolymeric template, which includes a portion of the HCV genome. Typically, the assay mixture (50 μL) contains 10 mM Tris-HCl (pH 7.5), 5 mM MgCl2, 0.2 mM EDTA, 10 mM KCl, 1 unit/μL RNAsin, 1 mM DTT, 10 μM each of NTP, including [^3H]-UTP, and 10 ng/μL heteropolymeric template. Test compounds are initially dissolved in 100% DMSO and further diluted in aqueous buffer containing 5% DMSO. Typically, compounds are tested at concentrations between 1 nM and 100 μM. […] Incorporation of radioactivity is determined by scintillation counting.

Series [4] has as its system HCV. As to conditions: treatment of HCV with interferon; cited from earlier work.

Take `NC(=O)c1ncn([C@@H]2O[C@H](CO)[C@@H](O)[C@H]2O)n1` [Ribavirin, 1-β-D-ribofuranosyl-1H-1,2,-4-triazole-3-carboxamide]: the “patients with significant hemolysis” value in series [1] is given as 10-20%.
Consider `C[C@@]1(O)[C@H](O)[C@@H](CO)O[C@H]1n1cc([N+](=O)[O-])c2c(N)ncnc21` [Compound 101, 7-(2′-C-methyl-β-D-ribofuranosyl)-4-amino-5-nitro-pyrrolo[2,3-d]pyrimidine], for which, in series [2], the IC50 was found to be 60 nM.
Still for that read-out and setting: the value for `C[C@@]1(O)[C@H](O)[C@@H](CO)O[C@H]1n1cc(C(=O)O)c2c(N)ncnc21` [Comparative Example A, 7-(2′-methyl-β-D-ribofuranosyl)-4-amino-5-carboxy-pyrrolo[2,3-d]pyrimidine, reference compound] was above 50000 nM.
In the case of `C[C@@]1(O)[C@H](O)[C@@H](COP(=O)(O)OP(=O)(O)OP(=O)(O)O)O[C@H]1n1cc([N+](=O)[O-])c2c(N)ncnc21` [Compound 104, 7-(2′-C-methyl-5′-triphospho-β-D-ribofuranosyl)-4-amino-5-nitro-pyrrolo[2,3-d]pyrimidine], the IC50 in series [3] stood at 2600 nM.
interferon: in series [4], the “response rate (long term efficacy)” value is recorded as “about 25%”.
